From US20260199320A1, “COMBINATION THERAPIES FOR TREATING CANCER” (INSTITUTE FOR CANCER RESEARCH D/B/A THE RESEARCH INSTITUTE …, priority 2022, published 2026)
Like-named read-outs stand apart in the source and are kept apart here.

Tested on: HEP 3B Hepatocellular Carcinoma
Assay: Cell viability by CellTiter Blue assay, CalcuSyn 2.0 combination analysis, HEP 3B
Settings: for IC50: read-out: Dm; for Dose Len: Len alone; for Dose Lon: Lon alone; for Dose Sor: Sor alone
Protocol: Cell viability was analyzed by CellTiter Blue assay. ED, effective dose. The data analysis was performed using CalcuSyn 2.0 software. […] CI 0.85-0.9: slight synergism; CI 0.7-0.85: moderate synergism; CI 0.3-0.7: synergism; CI 0.1-0.3: strong synergism; CI<0.1: very strong synergism.

Question: Which Effect (Dose 1.0 uM) does the source give for `COc1cc2nccc(Oc3ccc(NC(=O)NC4CC4)c(Cl)c3)c2cc1C(N)=O` [Len, Lenvatinib] here?
Answer: 0.3487

Question: What about the Effect (Dose 2.0 uM) of the same compound?
Answer: 0.5908

Question: What about the Effect (Dose 4.0 uM) of the same compound?
Answer: 0.6835

Question: What about the Effect (Dose 6.0 uM) of the same compound?
Answer: 0.706

Question: And the Effect (Dose 8.0 uM)?
Answer: 0.7316

Question: And the Effect (Dose 1.0E−4 uM)?
Answer: 1.0E−4

Question: What about the IC50 (Homo sapiens, Hep3B) of the same compound?
Answer: 1.98 µM

Question: What about the “Dose Len” value (Fa 0.05) of the same compound?
Answer: 0.08241 µM

Question: What about the “Dose Len” value (Fa 0.1) of the same compound?
Answer: 0.1847 µM

Question: And the “Dose Len” value (Fa 0.15)?
Answer: 0.3044 µM

Question: What about the “Dose Len” value (Fa 0.2) of the same compound?
Answer: 0.4435 µM

Question: And the “Dose Len” value (Fa 0.25)?
Answer: 0.605 µM

Question: What about the “Dose Len” value (Fa 0.3) of the same compound?
Answer: 0.7937 µM

Question: What about the “Dose Len” value (Fa 0.35) of the same compound?
Answer: 1.016 µM

Question: And the “Dose Len” value (Fa 0.4)?
Answer: 1.279 µM

Question: And the “Dose Len” value (Fa 0.45)?
Answer: 1.596 µM

Question: What about the “Dose Len” value (Fa 0.48908 (experimental point)) of the same compound?
Answer: 1.891 µM

Question: And the “Dose Len” value (Fa 0.5)?
Answer: 1.982 µM

Question: And the “Dose Len” value (Fa 0.55)?
Answer: 2.462 µM

Question: And the “Dose Len” value (Fa 0.6)?
Answer: 3.071 µM

Question: And the “Dose Len” value (Fa 0.65)?
Answer: 3.868 µM

Question: What about the “Dose Len” value (Fa 0.66115 (experimental point)) of the same compound?
Answer: 4.08 µM

Question: What about the “Dose Len” value (Fa 0.7) of the same compound?
Answer: 4.949 µM

Question: What about the “Dose Len” value (Fa 0.75) of the same compound?
Answer: 6.493 µM

Question: What about the “Dose Len” value (Fa 0.76439 (experimental point)) of the same compound?
Answer: 7.066 µM

Question: And the “Dose Len” value (Fa 0.79346 (experimental point))?
Answer: 8.481 µM

Question: What about the “Dose Len” value (Fa 0.8) of the same compound?
Answer: 8.859 µM

Question: And the “Dose Len” value (Fa 0.83864 (experimental point))?
Answer: 11.7543 µM

Question: And the “Dose Len” value (Fa 0.85)?
Answer: 12.9048 µM

Question: And the “Dose Len” value (Fa 0.9)?
Answer: 21.2693 µM

Question: What about the “Dose Len” value (Fa 0.95) of the same compound?
Answer: 47.6701 µM

Question: And the “Dose Len” value (Fa 0.97)?
Answer: 84.6505 µM

Question: What about the “Dose Len” value (Fa 1.0E−4 (experimental point)) of the same compound?
Answer: 9.48e-05 µM

Question: Which Effect (Dose 100.0 nM) does the source give for `NC(=O)N1CCC(CC(=O)N2CCC([C@H]3c4ncc(Br)cc4CCc4cc(Cl)cc(Br)c43)CC2)CC1` [Lon, Lonafarnib] here?
Answer: 0.2171

Question: And the Effect (Dose 200.0 nM)?
Answer: 0.2792

Question: And the Effect (Dose 400.0 nM)?
Answer: 0.3124

Question: And the Effect (Dose 600.0 nM)?
Answer: 0.3247

Question: And the Effect (Dose 800.0 nM)?
Answer: 0.3747

Question: And the Effect (Dose 1.0E−4 nM)?
Answer: 1.0E−4

Question: And the IC50 (Homo sapiens, Hep3B)?
Answer: 1.56 µM

Question: What about the “Dose Lon” value (Fa 0.05) of the same compound?
Answer: 7.632 nM

Question: What about the “Dose Lon” value (Fa 0.1) of the same compound?
Answer: 29.4334 nM

Question: And the “Dose Lon” value (Fa 0.15)?
Answer: 67.8864 nM

Question: What about the “Dose Lon” value (Fa 0.2) of the same compound?
Answer: 127.362 nM

Question: What about the “Dose Lon” value (Fa 0.25) of the same compound?
Answer: 214.159 nM

Question: And the “Dose Lon” value (Fa 0.3)?
Answer: 337.210 nM

Question: And the “Dose Lon” value (Fa 0.34468 (experimental point of LonSor))?
Answer: 488.163 nM

Question: And the “Dose Lon” value (Fa 0.35)?
Answer: 509.303 nM

Question: What about the “Dose Lon” value (Fa 0.37774 (experimental point of LonSor)) of the same compound?
Answer: 632.458 nM

Question: And the “Dose Lon” value (Fa 0.4)?
Answer: 749.086 nM

Question: And the “Dose Lon” value (Fa 0.45)?
Answer: 1084.42 nM

Question: And the “Dose Lon” value (Fa 0.48908 (experimental point of LonLen))?
Answer: 1439.98 nM

Question: What about the “Dose Lon” value (Fa 0.5) of the same compound?
Answer: 1558.23 nM

Question: What about the “Dose Lon” value (Fa 0.55) of the same compound?
Answer: 2239.05 nM

Question: And the “Dose Lon” value (Fa 0.6)?
Answer: 3241.39 nM

Question: And the “Dose Lon” value (Fa 0.60837 (experimental point of LonSor))?
Answer: 3452.95 nM

Question: What about the “Dose Lon” value (Fa 0.65) of the same compound?
Answer: 4767.46 nM

Question: What about the “Dose Lon” value (Fa 0.66115 (experimental point of LonLen)) of the same compound?
Answer: 5212.31 nM

Question: What about the “Dose Lon” value (Fa 0.7) of the same compound?
Answer: 7200.51 nM

Question: And the “Dose Lon” value (Fa 0.75)?
Answer: 11337.8 nM

Question: And the “Dose Lon” value (Fa 0.76439 (experimental point of LonLen))?
Answer: 13060.1 nM

Question: What about the “Dose Lon” value (Fa 0.79346 (experimental point of LonLen)) of the same compound?
Answer: 17723.1 nM

Question: And the “Dose Lon” value (Fa 0.8)?
Answer: 19064.4 nM

Question: What about the “Dose Lon” value (Fa 0.83864 (experimental point of LonLen)) of the same compound?
Answer: 30595.1 nM

Question: What about the “Dose Lon” value (Fa 0.84428 (experimental point of LonSor)) of the same compound?
Answer: 33023.4 nM

Question: What about the “Dose Lon” value (Fa 0.85) of the same compound?
Answer: 35766.8 nM

Question: What about the “Dose Lon” value (Fa 0.9) of the same compound?
Answer: 82494.1 nM

Question: What about the “Dose Lon” value (Fa 0.93635 (experimental point of LonSor)) of the same compound?
Answer: 200408. nM

Question: And the “Dose Lon” value (Fa 0.95)?
Answer: 318153. nM

Question: And the “Dose Lon” value (Fa 0.97)?
Answer: 831265. nM

Question: And the “Dose Lon” value (Fa 1.0E−4 (experimental point))?
Answer: 9.27e-05 nM

Question: `CNC(=O)c1cc(Oc2ccc(NC(=O)Nc3ccc(Cl)c(C(F)(F)F)c3)cc2)ccn1` [Sor, Sorafenib] was tested. Which Effect (Dose 1.0 uM) did it give?
Answer: 0.05824

Question: And the Effect (Dose 2.0 uM)?
Answer: 0.1667

Question: What about the Effect (Dose 4.0 uM) of the same compound?
Answer: 0.4078

Question: And the Effect (Dose 6.0 uM)?
Answer: 0.6762

Question: And the Effect (Dose 8.0 uM)?
Answer: 0.8681

Question: What about the Effect (Dose 1.0E−4 uM) of the same compound?
Answer: 1.0E−4

Question: What about the “Dose Sor” value (Fa 0.05) of the same compound?
Answer: 0.1769 µM

Question: What about the “Dose Sor” value (Fa 0.1) of the same compound?
Answer: 0.4116 µM

Question: And the “Dose Sor” value (Fa 0.15)?
Answer: 0.6944 µM

Question: And the “Dose Sor” value (Fa 0.2)?
Answer: 1.029 µM

Question: And the “Dose Sor” value (Fa 0.25)?
Answer: 1.425 µM

Question: And the “Dose Sor” value (Fa 0.3)?
Answer: 1.893 µM

Question: And the “Dose Sor” value (Fa 0.34468 (experimental point))?
Answer: 2.386 µM

Question: And the “Dose Sor” value (Fa 0.35)?
Answer: 2.451 µM

Question: And the “Dose Sor” value (Fa 0.37774 (experimental point))?
Answer: 2.806 µM

Question: What about the “Dose Sor” value (Fa 0.4) of the same compound?
Answer: 3.12 µM

Question: And the “Dose Sor” value (Fa 0.45)?
Answer: 3.933 µM

Question: What about the “Dose Sor” value (Fa 0.5) of the same compound?
Answer: 4.934 µM

Question: What about the “Dose Sor” value (Fa 0.55) of the same compound?
Answer: 6.19 µM

Question: What about the “Dose Sor” value (Fa 0.6) of the same compound?
Answer: 7.803 µM

Question: And the “Dose Sor” value (Fa 0.60837 (experimental point))?
Answer: 8.118 µM

Question: And the “Dose Sor” value (Fa 0.65)?
Answer: 9.934 µM

Question: And the “Dose Sor” value (Fa 0.7)?
Answer: 12.8580 µM

Question: And the “Dose Sor” value (Fa 0.75)?
Answer: 17.0827 µM

Question: And the “Dose Sor” value (Fa 0.8)?
Answer: 23.6479 µM

Question: And the “Dose Sor” value (Fa 0.84428 (experimental point))?
Answer: 33.3507 µM

Question: And the “Dose Sor” value (Fa 0.85)?
Answer: 35.0585 µM

Question: And the “Dose Sor” value (Fa 0.9)?
Answer: 59.1449 µM

Question: What about the “Dose Sor” value (Fa 0.93635 (experimental point)) of the same compound?
Answer: 103.075 µM

Question: What about the “Dose Sor” value (Fa 0.95) of the same compound?
Answer: 137.645 µM

Question: And the “Dose Sor” value (Fa 0.97)?
Answer: 251.060 µM

Question: What about the “Dose Sor” value (Fa 1.0E−4 (experimental point)) of the same compound?
Answer: 0.000148 µM

Question: And the IC50 (CalcuSyn median-effect fit, single drug dosed in uM)?
Answer: 4.93 µM
